Patent publication US9758537B2 (Achillion Pharmaceuticals, Inc., priority 2014, dated 2017)

These compounds were tested against Human factor D (Homo sapiens (Human), UniProt P00746) (assay: Human Factor D Assay). Settings: human factor D 80 nM, substrate Z-L-Lys-SBzl, DTNB, OD405.
Chain of Human factor D (P00746 26-253): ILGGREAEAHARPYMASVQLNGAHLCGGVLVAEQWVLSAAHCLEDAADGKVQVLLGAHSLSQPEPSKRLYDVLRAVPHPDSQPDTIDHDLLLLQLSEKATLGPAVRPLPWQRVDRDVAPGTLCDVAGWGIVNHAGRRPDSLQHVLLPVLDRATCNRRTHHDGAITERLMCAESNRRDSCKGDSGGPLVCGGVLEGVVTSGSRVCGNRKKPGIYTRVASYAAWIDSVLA
Assay type: biochemical
Method: Human factor D (purified from human serum, Complement Technology, Inc.) at 80 nM final concentration is incubated with test compound at various concentrations for 5 minutes at room temperature in 50 mM Tris, 1M NaCl, pH 7.5. A synthetic substrate Z-L-Lys-SBzl and DTNB (Ellman's reagent) are added to final concentrations of 10 μM each. The increase in color is recorded at OD405 nm in a microplate in kinetic mode over 30 minutes with 30 second time points in a […]. IC50 values are calculated by non-linear regression from the percentage of inhibition of complement factor D activity as a function of test compound concentration.
`CC(=O)c1cn(CC(=O)N2C[C@H](F)C[C@H]2C(=O)Nc2cccc(-c3cc(F)c(F)cc3Cl)c2F)c2ccccc12` [Compound 82, (2S,4R)-1-(2-(3-acetyl-1H-indol-1-yl)acetyl)-N-(2′-chloro-2,4′,5′-trifluorobiphenyl-3-yl)-4-fluoropyrrolidine-2-carboxamide] was tested, and the IC50 was < 1000 nM.
`O=C(NCc1cccc(Cl)c1F)[C@@H]1C[C@@H](F)CN1C(=O)Cn1nc(-c2cn[nH]c2)c2ccncc21` [Compound 73, (2S,4R)-1-(2-(3-(1H-pyrazol-4-yl)-1H-pyrazolo[3,4-c]pyridin-1-yl)acetyl)-N-(3-chloro-2-fluorobenzyl)-4-fluoropyrrolidine-2-carboxamide] was tested, and the IC50 was < 1000 nM.
With `CC(=O)n1cc(NC(=O)[C@H]2CCCN2C(=O)NCc2cccc(Cl)c2F)c2ccccc21` [Compound 9, (R)-N2-(1-acetyl-1H-indol-3-yl)-N1-(3-chloro-2-fluorobenzyl) pyrrolidine-1,2-dicarboxamide] the IC50 was > 10000 nM.
`CC(=O)c1cn(C(C)C(=O)N2C[C@H](F)C[C@H]2C(=O)NCc2cccc(Cl)c2F)c2ccccc12` (some centres unmarked) [Compound 55] was tested, and the IC50 was > 10000 nM.
With `CC(=O)c1ccc(Cl)c(-c2cccc(NC(=O)[C@@H]3C[C@@H](F)CN3C(=O)Cn3nc(C(N)=O)c4ccccc43)c2F)c1` [Compound 117, 1-(2-((2S,4R)-2-(5′-acetyl-2′-chloro-2-fluorobiphenyl-3-ylcarbamoyl)-4-fluoropyrrolidin-1-yl)-2-oxoethyl)-1H-indazole-3-carboxamide] the IC50 was < 1000 nM.
For `CC(=O)c1cn(CC(=O)N2C[C@H](F)C[C@H]2c2nc3cc(Cl)ccc3[nH]2)c2ccccc12` [Compound 15, 2-(3-acetyl-1H-indol-1-yl)-1-((2S,4R)-2-(5-chloro-1H-benzo[d]imidazol-2-yl)-4-fluoropyrrolidin-1-yl)ethanone], the IC50 was > 10000 nM.
In the case of `NC(=O)c1nn(CC(=O)N2C[C@H](F)C[C@H]2C(=O)Nc2cccc(-c3c(F)cc(F)cc3Cl)n2)c2cnccc12` [Compound 100, 1-(2-((2S,4R)-2-(6-(2-chloro-4,6-difluorophenyl)pyridin-2-ylcarbamoyl)-4-fluoropyrrolidin-1-yl)-2-oxoethyl)-1H-pyrazolo[3,4-c]pyridine-3-carboxamide], the IC50 is reported as < 1000 nM.
For `N#Cc1cn(CC(=O)N2C[C@H](F)C[C@H]2C(=O)NCc2cccc(Cl)c2F)c2ccccc12` [Compound 36, (2S,4R)-N-(3-chloro-2-fluorobenzyl)-1-(2-(3-cyano-1H-indol-1-yl)acetyl)-4-fluoropyrrolidine-2-carboxamide], the IC50 was < 1000 nM.
In the case of `CCOC(=O)CC(=O)N1CCc2c(n(CC(=O)N3C[C@H](F)C[C@H]3C(=O)NCc3cccc(Cl)c3F)c3ccccc23)C1` [Compound 70, ethyl 3-(9-(2-((2S,4R)-2-(3-chloro-2-fluorobenzylcarbamoyl)-4-fluoropyrrolidin-1-yl)-2-oxoethyl)-3,4-dihydro-1H-pyrido[3,4-b]indol-2(9H)-yl)-3-oxopropanoate], the IC50 is reported as > 10000 nM.
For `CC(=O)c1cn(CC(=O)N2C[C@H](F)C[C@H]2C(=O)Nc2cccc(-c3ccccc3Cl)c2F)c2c(-c3ccc(Cl)nc3)cccc12` [Compound 112, (2S,4R)-1-(2-(3-acetyl-7-(6-chloropyridin-3-yl)-1H-indol-1-yl)acetyl)-N-(2′-chloro-2-fluorobiphenyl-3-yl)-4-fluoropyrrolidine-2-carboxamide], the IC50 was < 1000 nM.
For `CC(=O)Nc1cn(CC(=O)N2C[C@H](F)C[C@H]2C(=O)NCc2cccc(Cl)c2F)c2ccccc12` [Compound 47, (2S,4R)-1-(2-(3-acetamido-1H-indol-1-yl)acetyl)-N-(3-chloro-2-fluorobenzyl)-4-fluoropyrrolidine-2-carboxamide], the IC50 was < 1000 nM.
`Cc1cc2c(s1)c(C(N)=O)nn2CC(=O)N1C[C@H](F)C[C@H]1C(=O)Nc1cccc(-c2ccccc2Cl)c1F` [Compound 113, 1-(2-((2S,4R)-2-(2′-chloro-2-fluorobiphenyl-3-ylcarbamoyl)-4-fluoropyrrolidin-1-yl)-2-oxoethyl)-5-methyl-1H-thieno[3,2-c]pyrazole-3-carboxamide] was tested, and the IC50 was < 1000 nM.
`CC(=O)c1cn(CC(=O)N2C[C@H](F)C[C@H]2C(=O)Nc2cccc(-c3ccccc3Cl)c2F)c2c(C3CC3)cccc12` [Compound 115, (2S,4R)-1-(2-(3-acetyl-7-cyclopropyl-1H-indol-1-yl)acetyl)-N-(2′-chloro-2-fluorobiphenyl-3-yl)-4-fluoropyrrolidine-2-carboxamide] was tested, and the IC50 was < 1000 nM.
In the case of `CC(=O)c1cn(CC(=O)N2C[C@H](F)C[C@H]2C(=O)Nc2cccc(-c3ccccc3Cl)c2F)c2c(C#Cc3ncc(F)cn3)cccc12` [Compound 124, (2S,4R)-1-(2-(3-acetyl-7-((5-fluoropyrimidin-2-yl)ethynyl)-1H-indol-1-yl)acetyl)-N-(2′-chloro-2-fluorobiphenyl-3-yl)-4-fluoropyrrolidine-2-carboxamide], the IC50 is reported as < 1000 nM.
`CC(=O)c1cn(CC(=O)N2[C@H](C(=O)NCc3cccc(Cl)c3F)C[C@@H]3CCCC[C@@H]32)c2cc(O)ccc12` [Compound 35, (2S,3aS,7aS)-1-(2-(3-acetyl-6-hydroxy-1H-indol-1-yl)acetyl)-N-(3-chloro-2-fluorobenzyl)octahydro-1H-indole-2-carboxamide] was tested, and the IC50 was < 1000 nM.
In the case of `CC(=O)n1cc(C(=O)C(=O)N2C[C@H](F)C[C@H]2C(=O)NCc2cccc(Cl)c2F)c2ccccc21` [Compound 71, (2S,4R)-1-(2-(1-acetyl-1H-indol-3-yl)-2-oxoacetyl)-N-(3-chloro-2-fluorobenzyl)-4-fluoropyrrolidine-2-carboxamide], the IC50 is reported as > 10000 nM.
For `CC(=O)n1cc(NC(=O)[C@H]2CCCN2C(=O)Nc2cccc(OC(F)(F)F)c2F)c2ccccc21` [Compound 16, (R)-N2-(1-acetyl-1H-indol-3-yl)-N1-(2-fluoro-3-(trifluoromethoxy)phenyl)pyrrolidine-1,2-dicarboxamide], the IC50 was > 10000 nM.
`O=C(NCc1cccc(Cl)c1F)[C@@H]1C[C@@H](F)CN1C(=O)Cn1c2c(c3ccccc31)CCNC2` [Compound 68, (2S,4R)-N-(3-chloro-2-fluorobenzyl)-1-(2-(3,4-dihydro-1H-pyrido[3,4-b]indol-9(2H)-yl)acetyl)-4-fluoropyrrolidine-2-carboxamide] was tested, and the IC50 was > 10000 nM.
`CCOP(=O)(OCC)c1cc(Cl)c(F)c(CNC(=O)[C@@H]2C[C@@H](F)CN2C(=O)Cn2cc(C(C)=O)c3ccccc32)c1` [Compound 61] was tested, and the IC50 was < 1000 nM.
For `O=C(NCc1cccc(Cl)c1F)[C@@H]1C[C@@H](F)CN1C(=O)Cn1nc(-c2cnc[nH]2)c2ccncc21` [Compound 75, (2S,4R)-1-(2-(3-(1H-imidazol-5-yl)-1H-pyrazolo[3,4-c]pyridin-1-yl)acetyl)-N-(3-chloro-2-fluorobenzyl)-4-fluoropyrrolidine-2-carboxamide], the IC50 was < 1000 nM.
In the case of `Cc1cc2c(s1)c(C(N)=O)nn2CC(=O)N1C[C@H](F)C[C@H]1C(=O)Nc1cccc(Br)n1` [Compound 118, 1-(2-((2S,4R)-2-(6-bromopyridin-2-ylcarbamoyl)-4-fluoropyrrolidin-1-yl)-2-oxoethyl)-5-methyl-1H-thieno[3,2-c]pyrazole-3-carboxamide], the IC50 is reported as < 1000 nM.
`NC(=O)c1cn(CC(=O)N2C[C@H](F)C[C@H]2c2nc3cc(-c4ccccc4Cl)ccc3[nH]2)c2ccccc12` [Compound 121, 1-(2-((2S,4R)-2-(5-(2-chlorophenyl)-1H-benzo[d]imidazol-2-yl)-4-fluoropyrrolidin-1-yl)-2-oxoethyl)-1H-indole-3-carboxamide] was tested, and the IC50 was > 10000 nM.
`O=C(NCc1cccc(Cl)c1F)[C@@H]1C[C@@H](F)CN1C(=O)Cn1cc([N+](=O)[O-])c2ccccc21` [Compound 46, (2S,4R)-N-(3-chloro-2-fluorobenzyl)-4-fluoro-1-(2-(3-nitro-1H-indol-1-yl)acetyl)pyrrolidine-2-carboxamide] was tested, and the IC50 was < 1000 nM.
`CC(=O)c1cn(CC(=O)N2C[C@H](F)C[C@H]2C(=O)Nc2cccc(-c3ccccc3Cl)c2F)c2c(-c3cn[nH]c3)cccc12` [Compound 114, (2S,4R)-1-(2-(3-acetyl-7-(1H-pyrazol-4-yl)-1H-indol-1-yl)acetyl)-N-(2′-chloro-2-fluorobiphenyl-3-yl)-4-fluoropyrrolidine-2-carboxamide] was tested, and the IC50 was < 1000 nM.
With `CC(=O)c1cn(CC(=O)N2C[C@H](F)C[C@H]2C(=O)Nc2cccc(-c3ccccc3Cl)c2F)c2cccc(C#N)c12` [Compound 97, (2S,4R)-1-(2-(3-acetyl-4-cyano-1H-indol-1-yl)acetyl)-N-(2′-chloro-2-fluorobiphenyl-3-yl)-4-fluoropyrrolidine-2-carboxamide] the IC50 was < 1000 nM.
In the case of `CC(=O)c1cn(CC(=O)N2C[C@H](F)C[C@H]2c2ncc(-c3cccc(Cl)c3)[nH]2)c2ccccc12` [Compound 11, 2-(3-acetyl-1H-indol-1-yl)-1-((2S,4R)-2-(5-(3-chlorophenyl)-1H-imidazol-2-yl)-4-fluoropyrrolidin-1-yl)ethanone], the IC50 is reported as > 10000 nM.
In the case of `CC(=O)c1cn(CC(=O)N2C[C@H](F)[C@@H](OCC3CC3)[C@H]2C(=O)NCc2cccc(Cl)c2F)c2cc(O)ccc12` [Compound 21, (2S,3S,4S)-1-(2-(3-acetyl-6-hydroxy-1H-indol-1-yl)acetyl)-N-(3-chloro-2-fluorobenzyl)-3-(cyclopropylmethoxy)-4-fluoropyrrolidine-2-carboxamide], the IC50 is reported as < 1000 nM.
For `CC(=O)c1cn(CC(=O)N2CC(F)C(OCC3CC3)[C@H]2C(=O)NCc2cccc(Cl)c2F)c2cc(O)ccc12` (stereo partly drawn) [Compound 25, (2S)-1-(2-(3-acetyl-6-hydroxy-1H-indol-1-yl)acetyl)-N-(3-chloro-2-fluorobenzyl)-3-(cyclopropylmethoxy)-4-fluoropyrrolidine-2-carboxamide], the IC50 was < 1000 nM.
In the case of `CC(=O)n1cc(NC(=O)N2C[C@H](F)C[C@H]2C(=O)NS(=O)(=O)c2cccc(Cl)c2F)c2ccccc21` [Compound 7, (2S,4R)-N1-(1-acetyl-1H-indol-3-yl)-N2-(3-chloro-2-fluorophenylsulfonyl) - 4-fluoropyrrolidine-1,2-dicarboxamide], the IC50 is reported as > 10000 nM.
